According to US20090010886A1, “Method for the Treatment of Myeloproliferative Diseases Using(+)-2-[1-(3-Ethoxy-4-Methoxyphenyl)-2- Methylsulfonylethyl]-4- Acetylaminoisoindoline-1,3- Dione” (CELGENE CORPORATION, priority 2004, published 2009):

Experiment: cardiovascular and respiratory function in anesthetized dogs (safety pharmacology)
Assay type: in vivo
Settings: anesthetized Beagle dogs, three ascending doses 400, 800 and 1,200 mg/kg/day, infusion through the jugular vein
Experimental: The pharmacological properties of 3-(3,4-dimethoxy-phenyl)-3-(1-oxo-1,3-dihydro-isoindol-2-yl)-propionamide, including activity comparisons with thalidomide, are characterized in in vitro studies. Studies examine the effects of 3-(3,4-dimethoxy-phenyl)-3-(1-oxo-1,3-dihydro-isoindol-2-yl)-propionamide on the production of various cytokines. In addition, a safety pharmacology study of 3-(3,4-dimethoxy-phenyl)-3-(1-oxo-1,3-dihydro-isoindol-2-yl)-propionamide is conducted in dogs and the effects of the compound on ECG parameters are examined further as part of three repeat-dose toxicity studies in primates.
The effects of 3-(3,4-dimethoxy-phenyl)-3-(1-oxo-1,3-dihydro-isoindol-2-yl)-propionamide on cardiovascular and respiratory function are investigated in anesthetized dogs. Two groups of Beagle dogs (2/sex/group) are used. One group receives three doses of vehicle only and the other receives three ascending doses of 3-(3,4-dimethoxy-phenyl)-3-(1-oxo-1,3-dihydro-isoindol-2-yl)-propionamide (400, 800, and 1,200 mg/kg/day). In all cases, doses of 3-(3,4-dimethoxy-phenyl)-3-(1-oxo-1,3-dihydro-isoindol-2-yl)-propionamide or vehicle are successively administered via infusion through the jugular vein separated by intervals of at least 30 minutes. […]

COc1ccc(C(CC(N)=O)N2Cc3ccccc3C2=O)cc1OC (stereo not shown) [3-(3,4-Dimethoxy-phenyl)-3-(1-oxo-1,3-dihydro-isoindol-2-yl)-propionamide]
cardiovascular and respiratory changes compared to the vehicle control group: minimal
